Assay results taken from patent publication US20190031676A1, “ANTIBACTERIAL ANNULATED PYRROLIDIN-2-ONE DERIVATIVES” (priority 2015, published 2019).
Values after ≈ are worked out from the molar mass of the structure shown.

What was measured:
Experiment in all cases: Bacterial growth minimal inhibitory concentration (microdilution, cation-adjusted Mueller-Hinton Broth)
Type in all cases: cell-based
E. coli ATCC25922 = conditions: quinolone-sensitive strain; for MIC: Escherichia coli, ATCC25922
Method: (§1) Minimal Inhibitory Concentrations (MICs; mg/L) were determined in cation-adjusted Mueller-Hinton Broth by a microdilution method following the description given in “Methods for Dilution Antimicrobial Susceptibility Tests for Bacteria that grow Aerobically”, Approved standard, 7th ed., Clinical and Laboratory Standards Institute (CLSI) Document M7-A7, Wayne, Pa., USA (2006).
(§2) All Example compounds were tested against several Gram-positive and Gram-negative bacteria. […] K. pneumoniae A-651 is a multiply-resistant strain (in particular quinolone-resistant), while E. coli ATCC25922 and P. aeruginosa ATCC27853 are quinolone-sensitive strains.

K. pneumoniae A-651 = conditions: multiply-resistant strain (in particular quinolone-resistant); for MIC: Klebsiella pneumoniae, A651
Method: as §1, §2

P. aeruginosa ATCC27853 = conditions: quinolone-sensitive strain; for MIC: Pseudomonas aeruginosa, ATCC27853
Method: as §1, §2

Compound	MIC (E. coli ATCC25922)	MIC (K. pneumoniae A-651)	MIC (P. aeruginosa ATCC27853)	MIC for E. coli ATCC25922 (E. coli ATCC25922)	MIC for K. Pneumoniae A-651 (K. pneumoniae A-651)	MIC for P. aeruginosa ATCC27853 (P. aeruginosa ATCC27853)
CC(CCN1Cc2cc(C#CC#CC3(CO)CC3)sc2C1=O)(C(=O)NO)S(C)(=O)=O (racemic) [Reference Example 2, (2RS)—N-hydroxy-4-(2-((1-(hydroxymethyl)cyclopropyl)buta-1,3-diyn-1-yl)-6-oxo-4,6-dihydro-5H-thieno[2,3-c]pyrrol-5-yl)-2-methyl-2-(methylsulfonyl)butanamide]	1 µg/mL (≈ 2.22 µM)	2 µg/mL (≈ 4.44 µM)	2 µg/mL (≈ 4.44 µM)			
C[C@@](CCN1Cc2cc(C#CC#CC3CN([C@@H]4CCOC4)C3)sc2C1=O)(C(=O)NO)S(C)(=O)=O (single isomer, unassigned) [Example 37]	0.5 µg/mL (≈ 0.989 µM)	0.5 µg/mL (≈ 0.989 µM)	1 µg/mL (≈ 1.98 µM)			
C[C@@](CCN1Cc2cc(C#CC#CCOC(=O)N3CC(O)C3)sc2C1=O)(C(=O)NO)S(C)(=O)=O [Example 6, (3R)-5-(5-(4-(hydroxyamino)-3-methyl-3-(methylsulfonyl)-4-oxobutyl)-6-oxo-5,6-dihydro-4H-thieno[2,3-c]pyrrol-2-yl)penta-2,4-diyn-1-yl 3-hydroxyazetidine-1-carboxylate]	1 µg/mL (≈ 1.96 µM)	1 µg/mL (≈ 1.96 µM)	2 µg/mL (≈ 3.92 µM)			
CN1CC(C#CC#Cc2ccc3c(c2)CN(CC[C@](C)(C(=O)NO)S(C)(=O)=O)C3=O)C1 [Example 8, (2R)—N-hydroxy-2-methyl-4-(5-((1-methylazetidin-3-yl)buta-1,3-diyn-1-yl)-1-oxoisoindolin-2-yl)-2-(methylsulfonyl)butanamide]	1 µg/mL (≈ 2.25 µM)	2 µg/mL (≈ 4.51 µM)	1 µg/mL (≈ 2.25 µM)			
C[C@@](CCN1Cc2cc(C#CC#CCOC(=O)N3CC(O)C3)ccc2C1=O)(C(=O)NO)S(C)(=O)=O [Example 9, (3R)-5-(2-(4-(hydroxyamino)-3-methyl-3-(methylsulfonyl)-4-oxobutyl)-1-oxoisoindolin-5-yl)penta-2,4-diyn-1-yl 3-hydroxyazetidine-1-carboxylate]	1 µg/mL (≈ 1.99 µM)	1 µg/mL (≈ 1.99 µM)	2 µg/mL (≈ 3.97 µM)			
C[C@@](CCN1Cc2cc(C#CC#CC3(N)CC3)ccc2C1=O)(C(=O)NO)S(C)(=O)=O [Example 13, (2R)-4-(5-((1-aminocyclopropyl)buta-1,3-diyn-1-yl)-1-oxoisoindolin-2-yl)-N-hydroxy-2-methyl-2-(methylsulfonyl)butanamide]	0.5 µg/mL (≈ 1.16 µM)	1 µg/mL (≈ 2.33 µM)	1 µg/mL (≈ 2.33 µM)			
C[C@@](CCN1Cc2cc(C#CC#CC3CN(C4COC4)C3)sc2C1=O)(C(=O)NO)S(C)(=O)=O [Example 15, (2R)—N-hydroxy-2-methyl-2-(methylsulfonyl)-4-(2-((1-(oxetan-3-yl)azetidin-3-yl)buta-1,3-diyn-1-yl)-6-oxo-4,6-dihydro-5H-thieno[2,3-c]pyrrol-5-yl)butanamide]	0.5 µg/mL (≈ 1.02 µM)	4 µg/mL (≈ 8.14 µM)	4 µg/mL (≈ 8.14 µM)			
C[C@@](CCN1Cc2cc(C#CC#CC3CN(CCO)C3)sc2C1=O)(C(=O)NO)S(C)(=O)=O [Example 17, (2R)—N-hydroxy-4-(2-((1-(2-hydroxyethyl)azetidin-3-yl)buta-1,3-diyn-1-yl)-6-oxo-4,6-dihydro-5H-thieno[2,3-c]pyrrol-5-yl)-2-methyl-2-(methylsulfonyl)butanamide]	0.5 µg/mL (≈ 1.04 µM)	2 µg/mL (≈ 4.17 µM)	1 µg/mL (≈ 2.09 µM)			
C[C@@](CCN1Cc2cc(C#CC#C[C@H]3C[C@]3(F)CO)ccc2C1=O)(C(=O)NO)S(C)(=O)=O [Example 18, (2R)-4-(5-(((1R,2R)-2-fluoro-2-(hydroxymethyl)cyclopropyl)buta-1,3-diyn-1-yl)-1-oxoisoindolin-2-yl)-N-hydroxy-2-methyl-2-(methylsulfonyl)butanamide]	0.5 µg/mL (≈ 1.08 µM)	2 µg/mL (≈ 4.32 µM)	1 µg/mL (≈ 2.16 µM)			
C[C@@](CCN1Cc2cc(C#CC#C[C@@H]3C[C@@H](O)[C@@H](O)C3)sc2C1=O)(C(=O)NO)S(C)(=O)=O [Example 21, (2R)-4-(2-(((1S,3R,4S)-3,4-dihydroxycyclopentyl)buta-1,3-diyn-1-yl)-6-oxo-4,6-dihydro-5H-thieno[2,3-c]pyrrol-5-yl)-N-hydroxy-2-methyl-2-(methylsulfonyl)butanamide]				0.5 µg/mL	2 µg/mL	1 µg/mL
C[C@@](CCN1Cc2cc(C#CC#C[C@H]3C[C@@H]3[C@@H](O)CO)sc2C1=O)(C(=O)NO)S(C)(=O)=O [Example 22, (2R)-4-(2-(((1S,2S)-2-((2R)-1,2-dihydroxyethyl)cyclopropyl)buta-1,3-diyn-1-yl)-6-oxo-4,6-dihydro-5H-thieno[2,3-c]pyrrol-5-yl)-N-hydroxy-2-methyl-2-(methylsulfonyl)butanamide]				0.5 µg/mL	1 µg/mL	1 µg/mL

The next lines start with the values.

MIC (E. coli ATCC25922)	MIC (K. pneumoniae A-651)	MIC (P. aeruginosa ATCC27853)	MIC for E. coli ATCC25922 (E. coli ATCC25922)	MIC for K. Pneumoniae A-651 (K. pneumoniae A-651)	MIC for P. aeruginosa ATCC27853 (P. aeruginosa ATCC27853)	Compound
0.25 µg/mL (≈ 0.495 µM)	1 µg/mL (≈ 1.98 µM)	2 µg/mL (≈ 3.96 µM)				CC(C)(CO)c1ccc(C#Cc2cc3c(s2)C(=O)N(CCC(C)(C(=O)NO)S(C)(=O)=O)C3)cc1 (racemic) [Reference Example 1, (2RS)—N-hydroxy-4-(2-((4-(1-hydroxy-2-methylpropan-2-yl)phenyl)ethynyl)-6-oxo-4,6-dihydro-5H-thieno[2,3-c]pyrrol-5-yl)-2-methyl-2-(methylsulfonyl)butanamide]
0.125 µg/mL (≈ 0.277 µM)	0.25 µg/mL (≈ 0.555 µM)	0.5 µg/mL (≈ 1.11 µM)				C[C@@](CCN1Cc2cc(C#CC#C[C@@H]3C[C@H]3CO)sc2C1=O)(C(=O)NO)S(C)(=O)=O (single isomer, unassigned) [Example 1]
0.25 µg/mL (≈ 0.494 µM)	0.25 µg/mL (≈ 0.494 µM)	1 µg/mL (≈ 1.98 µM)				C[C@@](CCN1Cc2cc(C#CC#CC3CN([C@H]4CCOC4)C3)sc2C1=O)(C(=O)NO)S(C)(=O)=O (single isomer, unassigned) [Example 38]
≤ 0.063 µg/mL	0.25 µg/mL (≈ 0.548 µM)	2 µg/mL (≈ 4.38 µM)				COc1ccc(-c2cc3c(s2)C(=O)N(CC[C@](C)(C(=O)NO)S(C)(=O)=O)C3)c(F)c1 [Example 2, (2R)-4-(2-(2-fluoro-4-methoxyphenyl)-6-oxo-4,6-dihydro-5H-thieno[2,3-c]pyrrol-5-yl)-N-hydroxy-2-methyl-2-(methylsulfonyl)butanamide]
0.25 µg/mL (≈ 0.574 µM)	0.5 µg/mL (≈ 1.15 µM)	1 µg/mL (≈ 2.3 µM)				C[C@@](CCN1Cc2cc(C#CC#CC3(N)CC3)sc2C1=O)(C(=O)NO)S(C)(=O)=O [Example 3, (2R)-4-(2-((1-aminocyclopropyl)buta-1,3-diyn-1-yl)-6-oxo-4,6-dihydro-5H-thieno[2,3-c]pyrrol-5-yl)-N-hydroxy-2-methyl-2-(methylsulfonyl)butanamide]
0.125 µg/mL (≈ 0.278 µM)	0.25 µg/mL (≈ 0.556 µM)	1 µg/mL (≈ 2.22 µM)				CNC1(C#CC#Cc2cc3c(s2)C(=O)N(CC[C@](C)(C(=O)NO)S(C)(=O)=O)C3)CC1 [Example 5, (2R)—N-hydroxy-2-methyl-4-(2-((1-(methylamino)cyclopropyl)buta-1,3-diyn-1-yl)-6-oxo-4,6-dihydro-5H-thieno[2,3-c]pyrrol-5-yl)-2-(methylsulfonyl)butanamide]
0.25 µg/mL (≈ 0.564 µM)	1 µg/mL (≈ 2.25 µM)	2 µg/mL (≈ 4.51 µM)				CNC1(C#CC#Cc2ccc3c(c2)CN(CC[C@](C)(C(=O)NO)S(C)(=O)=O)C3=O)CC1 [Example 7, (2R)—N-hydroxy-2-methyl-4-(5-((1-(methylamino)cyclopropyl)buta-1,3-diyn-1-yl)-1-oxoisoindolin-2-yl)-2-(methylsulfonyl)butanamide]
0.125 µg/mL (≈ 0.277 µM)	0.063 µg/mL (≈ 0.14 µM)	8 µg/mL (≈ 17.8 µM)				COc1ccc(-c2ccc3c(c2)CN(CC[C@](C)(C(=O)NO)S(C)(=O)=O)C3=O)c(F)c1 [Example 10, (2R)-4-(5-(2-fluoro-4-methoxyphenyl)-1-oxoisoindolin-2-yl)-N-hydroxy-2-methyl-2-(methylsulfonyl)butanamide]
0.25 µg/mL (≈ 0.556 µM)	1 µg/mL (≈ 2.22 µM)	0.5 µg/mL (≈ 1.11 µM)				CN1CC(C#CC#Cc2cc3c(s2)C(=O)N(CC[C@](C)(C(=O)NO)S(C)(=O)=O)C3)C1 [Example 11, (2R)—N-hydroxy-2-methyl-4-(2-((1-methylazetidin-3-yl)buta-1,3-diyn-1-yl)-6-oxo-4,6-dihydro-5H-thieno[2,3-c]pyrrol-5-yl)-2-(methylsulfonyl)butanamide]
0.031 µg/mL (≈ 0.0697 µM)	0.25 µg/mL (≈ 0.562 µM)	2 µg/mL (≈ 4.5 µM)				C[C@@](CCN1Cc2cc(C#CC#CC3(CO)CC3)ccc2C1=O)(C(=O)NO)S(C)(=O)=O [Example 12, (2R)—N-hydroxy-4-(5-((1-(hydroxymethyl)cyclopropyl)buta-1,3-diyn-1-yl)-1-oxoisoindolin-2-yl)-2-methyl-2-(methylsulfonyl)butanamide]
0.031 µg/mL (≈ 0.0597 µM)	0.25 µg/mL (≈ 0.481 µM)	2 µg/mL (≈ 3.85 µM)				C[C@@](CCN1Cc2cc(C#Cc3ccc(CN4CC(F)C4)cc3)sc2C1=O)(C(=O)NO)S(C)(=O)=O [Example 14, (2R)-4-(2-((4-((3-fluoroazetidin-1-yl)methyl)phenyl)ethynyl)-6-oxo-4,6-dihydro-5H-thieno[2,3-c]pyrrol-5-yl)-N-hydroxy-2-methyl-2-(methylsulfonyl)butanamide]
0.125 µg/mL (≈ 0.277 µM)	0.25 µg/mL (≈ 0.555 µM)	0.5 µg/mL (≈ 1.11 µM)				C[C@@](CCN1Cc2cc(C#CC#C[C@H]3C[C@@H]3CO)sc2C1=O)(C(=O)NO)S(C)(=O)=O [Example 19, (2R)—N-hydroxy-4-(2-(((1S,2S)-2-(hydroxymethyl)cyclopropyl)buta-1,3-diyn-1-yl)-6-oxo-4,6-dihydro-5H-thieno[2,3-c]pyrrol-5-yl)-2-methyl-2-(methylsulfonyl)butanamide]
0.125 µg/mL (≈ 0.233 µM)	0.25 µg/mL (≈ 0.467 µM)	1 µg/mL (≈ 1.87 µM)				CN(C)CC(=O)OC[C@H]1C[C@@H]1C#CC#Cc1cc2c(s1)C(=O)N(CC[C@](C)(C(=O)NO)S(C)(=O)=O)C2 [Example 20, ((1S,2S)-2-((5-((3R)-4-(hydroxyamino)-3-methyl-3-(methylsulfonyl)-4-oxobutyl)-6-oxo-5,6-dihydro-4H-thieno[2,3-c]pyrrol-2-yl)buta-1,3-diyn-1-yl)cyclopropyl)methyl dimethylglycinate]
